From patent publication US12263155B2, “Combinations of monoamine oxidase inhibitors and serotonin receptor agonists and their therapeutic use” (Remedi, Inc., priority 2022, dated 2025)

Tests used:
[1] = Phase I 14-day twice-daily pharmacokinetics; conditions: for concentration at 12 h: C12h
Experimental: Methods: The study was a Phase I, single-center, randomized, parallel-group, multiple-dose, placebo-controlled, pharmacodynamic, pharmacokinetic and safety study in healthy volunteers. To obtain 24 enrolled subjects, screening procedures and inclusion/exclusion criteria were evaluated for 54 subjects during a variable screening period of up to 28 days. Once enrolled, subjects were randomized to either CX157 10 mg, 20 mg or 40 mg or matching placebo administered twice daily for 14 consecutive days.
Formulations: Each natural/transparent Licaps® size 0 hard gelatin capsule contains 10 mg CX157 in Labrasol™; each capsule is banded with a green gelatin band comprised of gelatin NF and polysorbate-80 NF. CX157 Liquid Filled Capsules are packaged in white, opaque, high density polyethylene (HDPE) bottles with screw-top polypropylene child resistant caps. Each bottle contains 30 capsules. CX157 Liquid Filled Capsules, 5 and 10 mg are stored long-term at controlled room temperature conditions [15-30° C. (59-86° F.)].

MAO-A = target: T1, MAO-A (Homo sapiens, UniProt P21397); experiment: Phase I 14-day twice-daily pharmacodynamics; format: in vivo; set-up: administered for 14 days compared to placebo in healthy male and female volunteers; from tissue; host or cells: in vivo, healthy volunteers; conditions: repeated administration 10, 20, 40 mg twice daily
T1 sequence (P21397 1-527): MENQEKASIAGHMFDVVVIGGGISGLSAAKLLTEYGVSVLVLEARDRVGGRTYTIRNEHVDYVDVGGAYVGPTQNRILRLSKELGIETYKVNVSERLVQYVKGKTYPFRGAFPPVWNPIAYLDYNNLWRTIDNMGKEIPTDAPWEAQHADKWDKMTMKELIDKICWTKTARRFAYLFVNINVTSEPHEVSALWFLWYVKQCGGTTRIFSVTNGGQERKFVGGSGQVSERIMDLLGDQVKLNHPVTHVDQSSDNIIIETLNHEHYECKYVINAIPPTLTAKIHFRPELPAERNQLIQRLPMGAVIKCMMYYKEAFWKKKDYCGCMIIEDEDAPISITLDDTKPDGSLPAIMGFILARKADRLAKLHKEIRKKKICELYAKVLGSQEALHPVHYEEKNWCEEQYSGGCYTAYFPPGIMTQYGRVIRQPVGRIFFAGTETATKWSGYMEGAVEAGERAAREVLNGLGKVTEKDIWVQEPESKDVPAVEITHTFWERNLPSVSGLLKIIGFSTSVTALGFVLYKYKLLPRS

[2] = healthy volunteers, 10 mg twice daily, Day 1, mean
[3] = healthy volunteers, 10 mg twice daily, Day 14, mean
[4] = healthy volunteers, 20 mg twice daily, Day 1, mean
[5] = healthy volunteers, 20 mg twice daily, Day 14, mean
[6] = healthy volunteers, 40 mg twice daily, Day 1, mean
[7] = healthy volunteers, 40 mg twice daily, Day 14, mean, N = 4
[8] = human, plasma, oral, 10 mg, healthy volunteers, 10 mg twice daily, Day 1, mean
[9] = human, plasma, oral, 10 mg, healthy volunteers, 10 mg twice daily, Day 14, mean
[10] = human, plasma, oral, 20 mg, healthy volunteers, 20 mg twice daily, Day 1, mean
[11] = human, plasma, oral, 20 mg, healthy volunteers, 20 mg twice daily, Day 14, mean
[12] = human, plasma, oral, 40 mg, healthy volunteers, 40 mg twice daily, Day 1, mean
[13] = human, plasma, oral, 40 mg, healthy volunteers, 40 mg twice daily, Day 14, mean, N = 4

O=S1(=O)c2ccc(F)cc2Oc2cc(OCC(F)(F)F)ccc21 [CX157, 3-fluoro-7(2,2,2-trifluorethoxy)phenoxathiine-10,10-dioxide]
AUC0-12h/Dose [1, 2]: 380
Cmax/Cmin [1, 2]: 31.4 ratio
Cmax/Dose [1, 2]: 137
Tmin [1, 2]: 10.7 h
AUC0-12h/Dose [1, 3]: 753
CSS [1, 3]: 8.1 ng/mL
Cmax/Cmin [1, 3]: 6.64 ratio
Cmax/Dose [1, 3]: 185
Tmin [1, 3]: 12 h
AUC0-12h/Dose [1, 4]: 312
Cmax/Cmin [1, 4]: 36.7 ratio
Cmax/Dose [1, 4]: 128
Cmin [1, 4]: 1.13 ng/mL
Tmin [1, 4]: 12 h
AUC0-12h/Dose [1, 5]: 400
Cmax/Cmin [1, 5]: 10.8 ratio
Cmax/Dose [1, 5]: 104
Cmin [1, 5]: 3.05 ng/mL
Tmin [1, 5]: 12 h
% AUCextrap ([1]; healthy volunteers, 20 mg twice daily, Day 14, mean, N = 2): 19.0c %
AUC0-12h/Dose [1, 6]: 363
Cmax/Cmin [1, 6]: 28.2 ratio
Cmax/Dose [1, 6]: 136
Cmin [1, 6]: 2.52 ng/mL
Tmin [1, 6]: 12 h
% AUCextrap [1, 7]: 16.5%
AUC0-12h/Dose [1, 7]: 687
CSS [1, 7]: 29.6 ng/mL
Cmax/Cmin [1, 7]: 15.6 ratio
Cmax/Dose [1, 7]: 320
Cmin [1, 7]: 8.8 ng/mL
Tmin [1, 7]: 12 h
half-life ([1]; human, plasma, oral): 33.3 to 35.3 h
AUC(0-t) ([1]; human, plasma, oral, 10 mg, AUC0-12h, healthy volunteers, 10 mg twice daily, Day 1, mean): 50 ng·h/mL
AUC(0-t) ([1]; human, plasma, oral, 10 mg, AUC0-12h, healthy volunteers, 10 mg twice daily, Day 14, mean): 97 ng·h/mL
AUC(0-t) ([1]; human, plasma, oral, 10 mg, AUClast, healthy volunteers, 10 mg twice daily, Day 14, mean): 180 ng·h/mL
concentration at 12 h [1, 8]: 0.63 ng/mL
concentration at 12 h [1, 9]: 3 ng/mL
Cmax [1, 8]: 18.1 ng/mL
Cmax [1, 9]: 24.2 ng/mL
concentration at 1 day ([1]; human, plasma, oral, 10 mg, Cmin, healthy volunteers, 10 mg twice daily, Day 1, mean): 0.6 ng/mL
concentration at 14 day ([1]; human, plasma, oral, 10 mg, Cmin, healthy volunteers, 10 mg twice daily, Day 14, mean): 3 ng/mL
Tmax ([1]; human, plasma, oral, 10 mg, healthy volunteers, 10 mg twice daily, Day 1, median): 1 h
Tmax ([1]; human, plasma, oral, 10 mg, healthy volunteers, 10 mg twice daily, Day 14, median): 1 h
AUC(0-inf) ([1]; human, plasma, oral, 20 mg): 433 ng·h/mL
half-life ([1]; human, plasma, oral, 20 mg): 33.3 h
AUC(0-t) ([1]; human, plasma, oral, 20 mg, AUC0-12h, healthy volunteers, 20 mg twice daily, Day 1, mean): 83.5 ng·h/mL
AUC(0-t) ([1]; human, plasma, oral, 20 mg, AUC0-12h, healthy volunteers, 20 mg twice daily, Day 14, mean): 115 ng·h/mL
AUC(0-t) ([1]; human, plasma, oral, 20 mg, AUClast, healthy volunteers, 20 mg twice daily, Day 14, mean): 191 ng·h/mL
concentration at 12 h [1, 10]: 1.13 ng/mL
concentration at 12 h [1, 11]: 3.05 ng/mL
concentration at 14 day ([1]; human, plasma, oral, 20 mg, CSS, healthy volunteers, 20 mg twice daily, Day 14, mean): 9.6 ng/mL
Cmax [1, 10]: 32.3 ng/mL
Cmax [1, 11]: 30.1 ng/mL
Tmax ([1]; human, plasma, oral, 20 mg, healthy volunteers, 20 mg twice daily, Day 1, median): 1.25 h
Tmax ([1]; human, plasma, oral, 20 mg, healthy volunteers, 20 mg twice daily, Day 14, median): 1.5 h
AUC(0-inf) ([1]; human, plasma, oral, 40 mg): 712 ng·h/mL
half-life ([1]; human, plasma, oral, 40 mg): 35.3 h
AUC(0-t) ([1]; human, plasma, oral, 40 mg, AUC0-12h, healthy volunteers, 40 mg twice daily, Day 1, mean): 186 ng·h/mL
AUC(0-t) ([1]; human, plasma, oral, 40 mg, AUC0-12h, healthy volunteers, 40 mg twice daily, Day 14, mean, N = 4): 355 ng·h/mL
AUC(0-t) ([1]; human, plasma, oral, 40 mg, AUClast, healthy volunteers, 40 mg twice daily, Day 14, mean, N = 4): 602 ng·h/mL
concentration at 12 h [1, 12]: 2.52 ng/mL
concentration at 12 h [1, 13]: 8.8 ng/mL
concentration at 14 day ([1]; human, plasma, oral, 40 mg, CSS, healthy volunteers, 40 mg twice daily, Day 14, mean, N = 4): 29.6 ± 19.6 ng/mL
Cmax [1, 12]: 69.5 ng/mL
Cmax [1, 13]: 166 ± 179 ng/mL
Tmax ([1]; human, plasma, oral, 40 mg, healthy volunteers, 40 mg twice daily, Day 1, median): 1.08 h
Tmax ([1]; human, plasma, oral, 40 mg, healthy volunteers, 40 mg twice daily, Day 14, median, N = 4): 0.5 h
AUC(0-t) ([1]; human, plasma, oral, 40 mg, mean AUC0-12h, 40 mg twice daily, Day 14): 355 ± 235 ng·h/mL
pharmacodynamic activity: MAO-A activity (MAO-A): inhibits MAO-A activity
